Literature values as cited in patent US20010050137A1, “Anti-microbial shoe linings, sock liners, and socks and process for manufacture of same” (priority 1995, published 2001).
Read-outs that look alike come from different tables or passages of the source.

Assays:
Klebsiella pheumoniae = conditions: ATCC 4352; approx. 10^6 organisms/ml; DMSO cosolvent
Chaetomium globosum = conditions: ATCC 6205; approx. 10^5 colony-forming units/ml spores; DMSO cosolvent
Aureobasidium pullulans = conditions: ATCC 9348; approx. 10^5 colony-forming units/ml spores; DMSO cosolvent
[1] = test system: algae, mold, mildew and bacteria including E-Coli and Salmonella
Fusarium sp. = conditions: approx. 10^5 colony-forming units/ml spores; DMSO cosolvent
[2] = test system: most fungi (molds and yeasts); conditions: in general
Sctonema hofmaannii = conditions: DMSO cosolvent
Penicillium pinophilum = conditions: ATCC 9644; approx. 10^5 colony-forming units/ml spores; DMSO cosolvent
Pityrosporum Ovale = conditions: DMSO cosolvent
Chloroccum tetrasporum = conditions: DMSO cosolvent
most algae = conditions: in general
Synechocystis minima = conditions: DMSO cosolvent
Trentopholia odorata = conditions: DMSO cosolvent
Staphylococcus aureus = conditions: ATCC 6538; approx. 10^6 organisms/ml; DMSO cosolvent
Pseudomonas aeruginosa = conditions: ATCC 9721; approx. 10^6 organisms/ml; DMSO cosolvent
Aspergillus niger = conditions: ATCC 9542; approx. 10^5 colony-forming units/ml spores; DMSO cosolvent
[3] = commercial product, typical value
Escherichia coli = conditions: ATCC 9637; approx. 10^6 organisms/ml; DMSO cosolvent
Anacystis montana = conditions: DMSO cosolvent
Streptococcus faecalis = conditions: ATCC 19433; approx. 10^6 organisms/ml; DMSO cosolvent
Candida Albicans = conditions: ATCC 11651; DMSO cosolvent
[4] = test system: Streptoverticillium reticulum; conditions: ATCC 25607; DMSO cosolvent
most bacteria = conditions: in general
Gliocladium virens = conditions: ATCC 9645; approx. 10^5 colony-forming units/ml spores; DMSO cosolvent
[5] = for Solubility: 25° C.

## c1cc[n+]2c(c1)[S][Zn-2]1([O]2)[O][n+]2ccccc2[S]1 [Zinc Omadine®, bis[1-hydroxy-2(1H)-pyridinethionato-0,S]-(T-4) zinc]
Klebsiella pheumoniae
  Minimum Inhibitory Concentrations: 8 Micrograms/ml (ppm)
Chaetomium globosum
  Minimum Inhibitory Concentrations: <2 Micrograms/ml (ppm)
Aureobasidium pullulans
  Minimum Inhibitory Concentrations: <2 Micrograms/ml (ppm)
[1]
  inhibiting the growth of microorganisms: capable of inhibiting the growth
Fusarium sp.
  Minimum Inhibitory Concentrations: 32 Micrograms/ml (ppm)
[2]
  MIC in vitro: less than 5 ppm
Sctonema hofmaannii
  Minimum Inhibitory Concentrations: 0.5 Micrograms/ml (ppm)
Penicillium pinophilum
  Minimum Inhibitory Concentrations: <2 Micrograms/ml (ppm)
Pityrosporum Ovale
  Minimum Inhibitory Concentrations: 4 Micrograms/ml (ppm)
Chloroccum tetrasporum
  Minimum Inhibitory Concentrations: 8 Micrograms/ml (ppm)
Most algae
  MIC in vitro: less than 1 ppm
Synechocystis minima
  Minimum Inhibitory Concentrations: <0.06 Micrograms/ml (ppm)
Trentopholia odorata
  Minimum Inhibitory Concentrations: <0.06 Micrograms/ml (ppm)
Staphylococcus aureus
  Minimum Inhibitory Concentrations: 4 Micrograms/ml (ppm)
Pseudomonas aeruginosa
  Minimum Inhibitory Concentrations: 512 Micrograms/ml (ppm)
Aspergillus niger
  Minimum Inhibitory Concentrations: 8 Micrograms/ml (ppm)
[3]; at 100° C.
  Heat Stability: time stable: at least 120 hours
[3]
  decomposition temperature: 240 °C
Escherichia coli
  Minimum Inhibitory Concentrations: 8 Micrograms/ml (ppm)
Anacystis montana
  Minimum Inhibitory Concentrations: <0.06 Micrograms/ml (ppm)
Streptococcus faecalis
  Minimum Inhibitory Concentrations: 16 Micrograms/ml (ppm)
Candida Albicans
  Minimum Inhibitory Concentrations: <2 Micrograms/ml (ppm)
[4]
  Minimum Inhibitory Concentrations: 4 Micrograms/ml (ppm)
Most bacteria
  MIC in vitro: less than 50 ppm
Gliocladium virens
  Minimum Inhibitory Concentrations: 64 Micrograms/ml (ppm)
[5]; Castor oil
  Solubility: <0.0001 w/w %
[5]; Chloroform
  Solubility: 0.3 w/w %
[5]; Diethyleneglycol monoethyl ether
  Solubility: 0.01 w/w %
[5]; Dimethylsulfoxide
  Solubility: 4 w/w %
[5]; Ethanol, 40A
  Solubility: 0.01 w/w %
[5]; Ethyleneglycol monomethyl ether
  Solubility: 0.09 w/w %
[5]; Isopropanol
  Solubility: 0.008 w/w %
[5]; Isopropyl myristate
  Solubility: <0.0001 w/w %
[5]; Isopropyl palmitate
  Solubility: <0.0001 w/w %
[5]; Mineral oil, light
  Solubility: <0.0001 w/w %
[5]; Olive oil
  Solubility: <0.0003 w/w %
[5]; Polyethylene glycol 400
  Solubility: 0.2 w/w %
[5]; Propylene glycol
  Solubility: 0.02 w/w %
[5]; Water, pH 7, technical grade material, average
  Solubility: 0.0008 w/w %
[5]; water, 95 percent powder form
  Solubility in water: insoluble in water
